The source of these data is PubChem BioAssay AID1259407 (Chemical Carcinogenesis Research Information System (CCRIS), 2018).

SMILES strings stand for the structures. Activity calls are given as the source filed them. No rule for the calls is given here.

In this data set the test system is CCRIS mutagenicity, Ames/micronucleus/aberration tests. Nature of the data set: CCRIS mutagenicity studies.
[1] abbreviates: Test System: AMES SALMONELLA TYPHIMURIUM, Strain/Indicator: TA98, Metabolic Activation: NONE, Method: PREINCUBATION
The mark [2] stands for this setting: Test System: AMES SALMONELLA TYPHIMURIUM, Strain/Indicator: TA100, Metabolic Activation: NONE, Method: PREINCUBATION
Setting [3] is: Test System: AMES SALMONELLA TYPHIMURIUM, Strain/Indicator: TA1535, Metabolic Activation: NONE, Method: PREINCUBATION

In the case of `CCNc1cccc(O)c1`, the mutagenic call is “inactive; negative” (Test System: AMES SALMONELLA TYPHIMURIUM, Strain/Indicator: TA97, Metabolic Activation: HAMSTER, LIVER, S-9, AROCLOR 1254 (10%), Method: PREINCUBATION); “inactive; negative” (Test System: AMES SALMONELLA TYPHIMURIUM, Strain/Indicator: TA97, Metabolic Activation: NONE, Method: PREINCUBATION); “inactive; negative” (Test System: AMES SALMONELLA TYPHIMURIUM, Strain/Indicator: TA97, Metabolic Activation: RAT, LIVER, S-9, AROCLOR 1254 (10%), Method: PREINCUBATION); “active; positive” (Test System: AMES SALMONELLA TYPHIMURIUM, Strain/Indicator: TA98, Metabolic Activation: HAMSTER, LIVER, S-9, AROCLOR 1254 (10%), Method: PREINCUBATION); “inactive; negative” under setting [1]; “active; positive” (Test System: AMES SALMONELLA TYPHIMURIUM, Strain/Indicator: TA98, Metabolic Activation: RAT, LIVER, S-9, AROCLOR 1254 (10%), Method: PREINCUBATION). For the same compound, the mutagenic call by setting is: (Test System: AMES SALMONELLA TYPHIMURIUM, Strain/Indicator: TA100, Metabolic Activation: HAMSTER, LIVER, S-9, AROCLOR 1254 (10%), Method: PREINCUBATION) “inactive; negative”; under setting [2], “inactive; negative”; (Test System: AMES SALMONELLA TYPHIMURIUM, Strain/Indicator: TA100, Metabolic Activation: RAT, LIVER, S-9, AROCLOR 1254 (10%), Method: PREINCUBATION) “inactive; negative”; (Test System: AMES SALMONELLA TYPHIMURIUM, Strain/Indicator: TA1535, Metabolic Activation: HAMSTER, LIVER, S-9, AROCLOR 1254 (10%), Method: PREINCUBATION) “inactive; negative”; under setting [3], “inactive; negative”; (Test System: AMES SALMONELLA TYPHIMURIUM, Strain/Indicator: TA1535, Metabolic Activation: RAT, LIVER, S-9, AROCLOR 1254 (10%), Method: PREINCUBATION) “inactive; negative”.

`O=C=NCCCCCCN=C=O`: the mutagenic call was “inactive; negative” (Test System: AMES SALMONELLA TYPHIMURIUM, Strain/Indicator: TA98, Metabolic Activation: NONE, Method: DESICCATOR); “inactive; negative” under setting [1]; “inactive; negative” (Test System: AMES SALMONELLA TYPHIMURIUM, Strain/Indicator: TA98, Metabolic Activation: RAT LIVER S-9, AROCLOR 1254 (10%), Method: DESICCATOR); “inactive; negative” (Test System: AMES SALMONELLA TYPHIMURIUM, Strain/Indicator: TA98, Metabolic Activation: RAT, LIVER, S-9, SODIUM PHENOBARBITAL AND 5,6-BENZOFLAVONE, Method: PREINCUBATION); “inactive; negative” (Test System: AMES SALMONELLA TYPHIMURIUM, Strain/Indicator: TA100, Metabolic Activation: NONE, Method: DESICCATOR); “inactive; negative” under setting [2]. Also, the mutagenic call runs as follows: (Test System: AMES SALMONELLA TYPHIMURIUM, Strain/Indicator: TA100, Metabolic Activation: RAT LIVER S-9, AROCLOR 1254 (10%), Method: DESICCATOR) “inactive; negative”; (Test System: AMES SALMONELLA TYPHIMURIUM, Strain/Indicator: TA100, Metabolic Activation: RAT, LIVER, S-9, SODIUM PHENOBARBITAL AND 5,6-BENZOFLAVONE, Method: PREINCUBATION) “inactive; negative”; (Test System: AMES SALMONELLA TYPHIMURIUM, Strain/Indicator: TA102, Metabolic Activation: NONE, Method: PREINCUBATION) “inactive; negative”; (Test System: AMES SALMONELLA TYPHIMURIUM, Strain/Indicator: TA102, Metabolic Activation: RAT, LIVER, S-9, SODIUM PHENOBARBITAL AND 5,6-BENZOFLAVONE, Method: PREINCUBATION) “inactive; negative”; (Test System: AMES SALMONELLA TYPHIMURIUM, Strain/Indicator: TA104, Metabolic Activation: NONE, Method: PREINCUBATION) “inactive; negative”; (Test System: AMES SALMONELLA TYPHIMURIUM, Strain/Indicator: TA104, Metabolic Activation: RAT, LIVER, S-9, SODIUM PHENOBARBITAL AND 5,6-BENZOFLAVONE, Method: PREINCUBATION) “inactive; negative”. Moreover, the mutagenic call was “inactive; negative” (Test System: AMES SALMONELLA TYPHIMURIUM, Strain/Indicator: TA1535, Metabolic Activation: NONE, Method: DESICCATOR); “inactive; negative” under setting [3]; “inactive; negative” (Test System: AMES SALMONELLA TYPHIMURIUM, Strain/Indicator: TA1535, Metabolic Activation: RAT LIVER S-9, AROCLOR 1254 (10%), Method: DESICCATOR); “inactive; negative” (Test System: AMES SALMONELLA TYPHIMURIUM, Strain/Indicator: TA1535, Metabolic Activation: RAT, LIVER, S-9, SODIUM PHENOBARBITAL AND 5,6-BENZOFLAVONE, Method: PREINCUBATION); “inactive; negative” (Test System: AMES SALMONELLA TYPHIMURIUM, Strain/Indicator: TA1537, Metabolic Activation: NONE, Method: DESICCATOR); “inactive; negative” (Test System: AMES SALMONELLA TYPHIMURIUM, Strain/Indicator: TA1537, Metabolic Activation: NONE, Method: PREINCUBATION). In addition, the mutagenic call is, setting by setting: (Test System: AMES SALMONELLA TYPHIMURIUM, Strain/Indicator: TA1537, Metabolic Activation: RAT LIVER S-9, AROCLOR 1254 (10%), Method: DESICCATOR) “inactive; negative”; (Test System: AMES SALMONELLA TYPHIMURIUM, Strain/Indicator: TA1537, Metabolic Activation: RAT, LIVER, S-9, SODIUM PHENOBARBITAL AND 5,6-BENZOFLAVONE, Method: PREINCUBATION) “inactive; negative”; (Test System: CHINESE HAMSTER OVARY CELLS, Strain/Indicator: CHO/HGPRT/6-THIOGUANINE, Metabolic Activation: NONE, Method: DESICCATOR) “inactive; negative”; (Test System: CHINESE HAMSTER OVARY CELLS, Strain/Indicator: CHO/HGPRT/6-THIOGUANINE, Metabolic Activation: RAT LIVER S-9, AROCLOR 1254 (10%), Method: DESICCATOR) “inactive; negative”; (Test System: E. COLI, Strain/Indicator: WP2UVRA/PKM101, Metabolic Activation: NONE, Method: PREINCUBATION) “inactive; negative”; (Test System: E. COLI, Strain/Indicator: WP2UVRA/PKM101, Metabolic Activation: RAT, LIVER, S-9, SODIUM PHENOBARBITAL AND 5,6-BENZOFLAVONE, Method: PREINCUBATION) “inactive; negative”. Besides, the mutagenic call is “inactive; negative” (Test System: E. COLI, Strain/Indicator: WP2UVRA, Metabolic Activation: NONE, Method: PREINCUBATION) and “inactive; negative” (Test System: E. COLI, Strain/Indicator: WP2UVRA, Metabolic Activation: RAT, LIVER, S-9, SODIUM PHENOBARBITAL AND 5,6-BENZOFLAVONE, Method: PREINCUBATION).

Take `Clc1cncc(Cl)c1`: the mutagenic call (Test System: AMES SALMONELLA TYPHIMURIUM, Strain/Indicator: TA97, Metabolic Activation: NONE, Method: STANDARD PLATE) was “inactive; negative”; the mutagenic call (Test System: AMES SALMONELLA TYPHIMURIUM, Strain/Indicator: TA97, Metabolic Activation: RAT, LIVER, S-9, AROCLOR 1254, Method: STANDARD PLATE) is “inactive; negative”; the mutagenic call (Test System: AMES SALMONELLA TYPHIMURIUM, Strain/Indicator: TA98, Metabolic Activation: NONE, Method: STANDARD PLATE) was “inactive; negative”; the mutagenic call (Test System: AMES SALMONELLA TYPHIMURIUM, Strain/Indicator: TA98, Metabolic Activation: RAT, LIVER, S-9, AROCLOR 1254, Method: STANDARD PLATE) is “inactive; negative”; the mutagenic call (Test System: AMES SALMONELLA TYPHIMURIUM, Strain/Indicator: TA100, Metabolic Activation: NONE, Method: STANDARD PLATE) was “inactive; negative”; the mutagenic call (Test System: AMES SALMONELLA TYPHIMURIUM, Strain/Indicator: TA100, Metabolic Activation: RAT, LIVER, S-9, AROCLOR 1254, Method: STANDARD PLATE) was “inactive; negative”. The mutagenic call is “inactive; negative” (Test System: AMES SALMONELLA TYPHIMURIUM, Strain/Indicator: TA102, Metabolic Activation: NONE, Method: STANDARD PLATE) and “inactive; negative” (Test System: AMES SALMONELLA TYPHIMURIUM, Strain/Indicator: TA102, Metabolic Activation: RAT, LIVER, S-9, AROCLOR 1254, Method: STANDARD PLATE).
